Assay results reported in US20230151049A1, “Compounds Useful in HIV Therapy” (priority 2020, published 2023).
Where two headings read alike, the source gives them in different places. One block for each molecule: values may come before it.

Experiment: in vivo
Conditions: for concentration at 1 day / concentration at 7 day / concentration at 14 day / concentration at 21 day / concentration at 28 day / concentration at 35 day / concentration at 42 day / concentration at 49 day / concentration at 56 day / concentration at 63 day / concentration at 70 day / concentration at 77 day / concentration at 84 day: male, Wistar Han, rat
Method in brief: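 Three male Wistar Han rats (200-250 g), not fasted, received a single intramuscular gastrocnemius injection of prodrug suspension at 20 mg/kg EFdA equivalent. Tail-vein blood was taken into NaF/Na2EDTA, mixed 1:1 with 100 mM ammonium acetate pH 4, frozen, and analysed by LC-MS/MS.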

[1] = day 21, single IM Example 16A 20 mg/kg equivalent of EFdA
[2] = day 28, single IM Example 16A 20 mg/kg equivalent of EFdA
[3] = day 14, single IM Example 9B 20 mg/kg equivalent of EFdA
[4] = day 21, single IM Example 9B 20 mg/kg equivalent of EFdA
[5] = day 28, single IM Example 9B 20 mg/kg equivalent of EFdA

SMILES: C#C[C@]1(COP(=O)(N[C@@H](Cc2ccccc2)C(=O)OC(CCCCCCCCCCC)CCCCCCCCCCC)Oc2ccccc2)O[C@@H](n2cnc3c(N)nc(F)nc32)C[C@@H]1O (single isomer, unassigned) [Example 26A]
- Mean concentration of EFdA (day 1, single IM Example 26A 63 mg/kg): BQL (BQL = below quantification limit, 0.3 ng/ml for both)
- Mean concentration of EFdA (day 7, single IM Example 26A 63 mg/kg): BQL (BQL = below quantification limit, 0.3 ng/ml for both)
- Mean concentration of EFdA (day 14, single IM Example 26A 63 mg/kg): BQL (BQL = below quantification limit, 0.3 ng/ml for both)
- Mean concentration of EFdA (day 21, single IM Example 26A 63 mg/kg): BQL (BQL = below quantification limit, 0.3 ng/ml for both)
- Mean concentration of EFdA (day 28, single IM Example 26A 63 mg/kg): BQL (BQL = below quantification limit, 0.3 ng/ml for both)
- Mean concentration of EFdA (day 35, single IM Example 26A 63 mg/kg): BQL (BQL = below quantification limit, 0.3 ng/ml for both)
- Mean concentration of EFdA (day 42, single IM Example 26A 63 mg/kg): BQL (BQL = below quantification limit, 0.3 ng/ml for both)
- Mean concentration of EFdA (day 49, single IM Example 26A 63 mg/kg): BQL (BQL = below quantification limit, 0.3 ng/ml for both)
- Mean concentration of EFdA (day 56, single IM Example 26A 63 mg/kg): BQL (BQL = below quantification limit, 0.3 ng/ml for both)
- Mean concentration of EFdA (day 63, single IM Example 26A 63 mg/kg): BQL (BQL = below quantification limit, 0.3 ng/ml for both)
- Mean concentration of EFdA (day 70, single IM Example 26A 63 mg/kg): BQL (BQL = below quantification limit, 0.3 ng/ml for both)
- Mean concentration of EFdA (day 77, single IM Example 26A 63 mg/kg): BQL (BQL = below quantification limit, 0.3 ng/ml for both)
- Mean concentration of EFdA (day 84, single IM Example 26A 63 mg/kg): BQL (BQL = below quantification limit, 0.3 ng/ml for both)
- concentration at 1 day (in vivo, day 1, single IM 63 mg/kg, read-out: Mean concentration of Example 26A): 72.7 ng/mL
- concentration at 7 day (in vivo, day 7, single IM 63 mg/kg, read-out: Mean concentration of Example 26A): 37.6 ng/mL
- concentration at 14 day (in vivo, day 14, single IM 63 mg/kg, read-out: Mean concentration of Example 26A): 33.8 ng/mL
- concentration at 21 day (in vivo, day 21, single IM 63 mg/kg, read-out: Mean concentration of Example 26A): 22.9 ng/mL
- concentration at 28 day (in vivo, day 28, single IM 63 mg/kg, read-out: Mean concentration of Example 26A): 18.5 ng/mL
- concentration at 35 day (in vivo, day 35, single IM 63 mg/kg, read-out: Mean concentration of Example 26A): 14.4 ng/mL
- concentration at 42 day (in vivo, day 42, single IM 63 mg/kg, read-out: Mean concentration of Example 26A): 11.1 ng/mL
- concentration at 49 day (in vivo, day 49, single IM 63 mg/kg, read-out: Mean concentration of Example 26A): 9.62 ng/mL
- concentration at 56 day (in vivo, day 56, single IM 63 mg/kg, read-out: Mean concentration of Example 26A): 9.8 ng/mL
- concentration at 63 day (in vivo, day 63, single IM 63 mg/kg, read-out: Mean concentration of Example 26A): 11.5 ng/mL
- concentration at 70 day (in vivo, day 70, single IM 63 mg/kg, read-out: Mean concentration of Example 26A): 9.95 ng/mL
- concentration at 77 day (in vivo, day 77, single IM 63 mg/kg, read-out: Mean concentration of Example 26A): 9.69 ng/mL
- concentration at 84 day (in vivo, day 84, single IM 63 mg/kg, read-out: Mean concentration of Example 26A): 7.43 ng/mL

SMILES: C#C[C@]1(COP(=O)(N[C@@H](C)C(=O)OCCCCCCCCCCCCCCCCCCCCCC)Oc2ccccc2)O[C@@H](n2cnc3c(N)nc(F)nc32)C[C@@H]1O (single isomer, unassigned) [Example 16A]
- Mean concentration of EFdA (day 1, single IM Example 16A 20 mg/kg equivalent of EFdA): BQL (BQL = below quantification limit, 0.3 ng/mL for both)
- Mean concentration of Example 16A (day 14, single IM Example 16A 20 mg/kg equivalent of EFdA): BQL (BQL = below quantification limit, 0.3 ng/mL for both)
- Mean concentration of EFdA [1]: BQL (BQL = below quantification limit, 0.3 ng/mL for both)
- Mean concentration of Example 16A [1]: BQL (BQL = below quantification limit, 0.3 ng/mL for both)
- Mean concentration of EFdA [2]: BQL (BQL = below quantification limit, 0.3 ng/mL for both)
- Mean concentration of Example 16A [2]: BQL (BQL = below quantification limit, 0.3 ng/mL for both)
- concentration at 1 day (in vivo, day 1, single IM Example 16A 20 mg/kg equivalent of EFdA, read-out: Mean concentration of Example 16A): 3.05 ng/mL
- concentration at 7 day (in vivo, day 7, single IM Example 16A 20 mg/kg equivalent of EFdA, read-out: Mean concentration of Example 16A): 1.03 ng/mL

SMILES: C#C[C@]1(COP(=O)(N[C@@H](Cc2cc(F)cc(F)c2)C(=O)OCCCCCCCCCCCCCCCCCC)Oc2ccccc2)O[C@@H](n2cnc3c(N)nc(F)nc32)C[C@@H]1O (single isomer, unassigned) [Example 40A]
- Mean concentration of EFdA (day 14, single IM Example 40A 60 mg/kg): BQL (BQL = below quantification limit, 0.3 ng/ml for both)
- Mean concentration of EFdA (day 21, single IM Example 40A 60 mg/kg): BQL (BQL = below quantification limit, 0.3 ng/ml for both)
- Mean concentration of EFdA (day 28, single IM Example 40A 60 mg/kg): BQL (BQL = below quantification limit, 0.3 ng/ml for both)
- Mean concentration of EFdA (day 35, single IM Example 40A 60 mg/kg): BQL (BQL = below quantification limit, 0.3 ng/ml for both)
- Mean concentration of EFdA (day 42, single IM Example 40A 60 mg/kg): BQL (BQL = below quantification limit, 0.3 ng/ml for both)
- Mean concentration of EFdA (day 49, single IM Example 40A 60 mg/kg): BQL (BQL = below quantification limit, 0.3 ng/ml for both)
- Mean concentration of EFdA (day 56, single IM Example 40A 60 mg/kg): BQL (BQL = below quantification limit, 0.3 ng/ml for both)
- Mean concentration of EFdA (day 63, single IM Example 40A 60 mg/kg): BQL (BQL = below quantification limit, 0.3 ng/ml for both)
- Mean concentration of EFdA (day 70, single IM Example 40A 60 mg/kg): BQL (BQL = below quantification limit, 0.3 ng/ml for both)
- Mean concentration of EFdA (day 77, single IM Example 40A 60 mg/kg): BQL (BQL = below quantification limit, 0.3 ng/ml for both)
- Mean concentration of EFdA (day 84, single IM Example 40A 60 mg/kg): BQL (BQL = below quantification limit, 0.3 ng/ml for both)
- concentration at 1 day (in vivo, day 1, single IM Example 40A 60 mg/kg, read-out: Mean concentration of Example 40A): 59.2 ng/mL
- concentration at 7 day (in vivo, day 7, single IM Example 40A 60 mg/kg, read-out: Mean concentration of Example 40A): 22.4 ng/mL
- concentration at 14 day (in vivo, day 14, single IM Example 40A 60 mg/kg, read-out: Mean concentration of Example 40A): 11.2 ng/mL
- concentration at 21 day (in vivo, day 21, single IM Example 40A 60 mg/kg, read-out: Mean concentration of Example 40A): 11.2 ng/mL
- concentration at 28 day (in vivo, day 28, single IM Example 40A 60 mg/kg, read-out: Mean concentration of Example 40A): 12.7 ng/mL
- concentration at 35 day (in vivo, day 35, single IM Example 40A 60 mg/kg, read-out: Mean concentration of Example 40A): 12.6 ng/mL
- concentration at 42 day (in vivo, day 42, single IM Example 40A 60 mg/kg, read-out: Mean concentration of Example 40A): 13.2 ng/mL
- concentration at 49 day (in vivo, day 49, single IM Example 40A 60 mg/kg, read-out: Mean concentration of Example 40A): 11.7 ng/mL
- concentration at 56 day (in vivo, day 56, single IM Example 40A 60 mg/kg, read-out: Mean concentration of Example 40A): 14.7 ng/mL
- concentration at 63 day (in vivo, day 63, single IM Example 40A 60 mg/kg, read-out: Mean concentration of Example 40A): 13 ng/mL
- concentration at 70 day (in vivo, day 70, single IM Example 40A 60 mg/kg, read-out: Mean concentration of Example 40A): 12.2 ng/mL
- concentration at 77 day (in vivo, day 77, single IM Example 40A 60 mg/kg, read-out: Mean concentration of Example 40A): 11.7 ng/mL
- concentration at 84 day (in vivo, day 84, single IM Example 40A 60 mg/kg, read-out: Mean concentration of Example 40A): 10.3 ng/mL

- concentration at 1 day (whole blood, intramuscular, day 1, single IM Example 9B 20 mg/kg equivalent of EFdA, read-out: Mean concentration of Example 9B): 3.01 ng/mL
- concentration at 7 day (whole blood, intramuscular, day 7, single IM Example 9B 20 mg/kg equivalent of EFdA, read-out: Mean concentration of Example 9B): 0.663 ng/mL
SMILES: C#C[C@]1(COP(=O)(N[C@@H](Cc2ccccc2)C(=O)OCCCCCCCCCC)OCC(=O)OCCCCCCCCCC)O[C@@H](n2cnc3c(N)nc(F)nc32)C[C@@H]1O (single isomer, unassigned) [Example 9B]
- Mean concentration of EFdA [3]: BQL (BQL = below quantification limit, 0.2-0.3 ng/mL for Example 9B and 0.2 ng/mL for EFdA)
- Mean concentration of Example 9B [3]: BQL (BQL = below quantification limit, 0.2-0.3 ng/mL for Example 9B and 0.2 ng/mL for EFdA)
- Mean concentration of EFdA [4]: BQL (BQL = below quantification limit, 0.2-0.3 ng/mL for Example 9B and 0.2 ng/mL for EFdA)
- Mean concentration of Example 9B [4]: BQL (BQL = below quantification limit, 0.2-0.3 ng/mL for Example 9B and 0.2 ng/mL for EFdA)
- Mean concentration of EFdA [5]: BQL (BQL = below quantification limit, 0.2-0.3 ng/mL for Example 9B and 0.2 ng/mL for EFdA)
- Mean concentration of Example 9B [5]: BQL (BQL = below quantification limit, 0.2-0.3 ng/mL for Example 9B and 0.2 ng/mL for EFdA)
